Tested on: P. falciparum 3D7 growth, pLDH absorbance
Assay: blood-stage malaria parasite growth potency – strain 3D7, dose response (AID 2305)

Row | SMILES | IC50
1 | CCCCCN1CCCC(CNS(=O)(=O)c2cccc(C(=O)Nc3ccc(C(F)(F)F)cc3)c2)C1 (stereo not drawn) | 830 nM
2 | CC(CN(C)C)C(=O)Nc1cccc(-c2ccc(-c3nc4ccccc4[nH]3)cc2)c1 (stereo not drawn) | 710 nM
3 | Cc1ccoc1C(=O)Nc1cccc(-c2cccc(-c3nc4c(C)cccc4[nH]3)c2)c1 | 670 nM
4 | O=C(CC1SC(N2N=C(c3cccs3)CC2c2ccccc2)=NC1=O)Nc1ccccc1F (stereo not drawn) | 1090 nM
5 | COc1ccnc(NCCCNCc2cn(S(=O)(=O)c3ccccc3)c3ccccc23)c1 | 790 nM
6 | CC(C)C[C@@H](C(=O)N[C@@H](CCCCNC(=O)OCc1ccccc1)C(=O)Nc1nccs1)[C@H](C)N(O)C=O | 190 nM
7 | Cc1ccc(C2(O)C[C@H]3CC[C@@H](C2)N3C)cc1 (stereo partly drawn) | 610 nM
8 | CC(C)(C)C(=O)Oc1ccc(CC2NCCc3cc(OC(=O)C(C)(C)C)c(OC(=O)C(C)(C)C)cc32)cc1OC(=O)C(C)(C)C (stereo not drawn) | 420 nM
9 | CCOC(=O)c1c(NC(=O)c2ccccc2)sc2c(O)c(CNC3CCCCC3)ccc12 | 750 nM
10 | Cc1ccccc1C1CCN(C2CCC(NC(=O)/C=C/c3cccc(F)c3F)CC2)CC1 (stereo not drawn) | 1150 nM
11 | CC(C)C[C@H](NC(=O)c1cccc(F)c1)C(=O)N[C@H](/C=N/NC(=O)c1ccccc1)CCc1ccccc1 | 710 nM
12 | COc1cc2nc(NCCc3ccccc3)nc(NC(C)c3ccccc3)c2cc1OC (stereo not drawn) | 280 nM
13 | c1cc(CN2CCCCC2)cc(OCCCNc2ccnc3ccccc23)c1 | 430 nM
14 | O=C(Nc1ccc(O)c(-c2nc3ccccc3[nH]2)c1)c1ccc([N+](=O)[O-])cc1 | 320 nM
15 | Cc1cc(N2CCCC2=O)ccc1-c1ccc(C(=O)N2CCC(Oc3cccc(Cl)c3)CC2)cc1 | 430 nM
16 | COCCN1CCC(CN(C)CC(C)(C)c2nc(-c3ccc(Cl)c(O)c3)c(-c3ccncc3)[nH]2)CC1 | 1030 nM
17 | Cc1nc(-c2ccc(-c3ccc(C(=O)Nc4ccc(-n5ccnc5)c(N5CCN(C)CC5)c4)cc3)c(C)c2)no1 | 830 nM
18 | CN(C)Cc1ccc(O)c(-c2ccc(C(C)(C)C)cc2)n1 | 1080 nM
19 | CC(C)n1ncc2c(C(=O)N3CCCc4ccccc43)cc(-c3ccccc3)nc21 | 600 nM
20 | CC(C)(C)N1CCC(N(Cc2ccc(-c3ccc(C(F)(F)F)cc3)cc2)C(=O)Cn2c(CCc3cccc(F)c3F)nc(=O)c3cccnc32)CC1 | 760 nM
21 | Cc1cc(N)c2cc(NC(=O)/C=C/c3ccc([N+](=O)[O-])cc3)ccc2n1 | 670 nM
22 | Cc1cc(-c2ccc3c(c2)CCN(CCC2CCC(NC(=O)/C=C/c4cccc(F)c4)CC2)CC3)on1 (stereo not drawn) | 750 nM
23 | Cc1nc(-c2cccc(C(=O)N(Cc3cncn3Cc3cccc(C(F)(F)F)c3)CC3CC3)c2)cs1 | 940 nM
24 | CCCc1ccc(N2C(N)=NC(N)=NC2(C)C)cc1 | 30 nM
25 | Clc1ccc(CNc2ccnc(NCc3cccnc3N3CCCC3)n2)c(Cl)c1 | 1170 nM

Row | SMILES | IC50
26 | CCC(=O)NC(c1ccco1)c1cc(Cl)c2cccnc2c1O (stereo not drawn) | 870 nM
27 | CS(=O)(=O)c1ccc(-c2cnc(N)c(-c3cccc(CO)c3)c2)cc1 | 940 nM
28 | Cc1cc(Cl)ccc1NC(=O)Nc1ccc2nccc(N3CCN(C)CC3)c2c1 | 390 nM
29 | O=C(NCc1ccccc1S(=O)c1ccccc1CO)C(F)(F)F (stereo not drawn) | 180 nM
30 | Oc1ccc2c(c1NCC1CCCCC1)CCCC2 | 510 nM
31 | N#Cc1ccc(NC(=NCc2cccnc2)Nc2ccc(-c3ccccc3)cc2)c(O)c1 | 810 nM
32 | CC(C)c1ccc(NC(=O)Nc2ccc(CCNCCCc3ccccc3)cc2)cc1 | 760 nM
33 | NC(N)=Nc1nc(-c2cccc(NC(=O)NCc3cccc4ccccc34)c2)cs1 | 840 nM
34 | CCn1c(-c2nonc2N)nc2c(-c3ccc(CO)o3)ncc(OCCCN)c21 | 1360 nM
35 | Clc1nc(Cl)c2c(ccn2Cc2ccccc2)n1 | 790 nM
36 | COc1ccc2nccc([C@@H](O)CN3CCC(NC(=O)C(c4cc5ccccc5o4)N4CCN(c5ccccc5OC)CC4)CC3)c2c1 (stereo partly drawn) | 310 nM
37 | c1ccn2c(-c3ncnc(NCc4ccc5c(c4)CCO5)n3)cnc2c1 | 1190 nM
38 | O=C(O)CCSc1ncnc2nc[nH]c12 | 130 nM
39 | Cc1noc(C)c1-c1cccc(CNCc2cccc(-c3ccc(-c4nc5c(C)cccc5[nH]4)cc3)c2)c1 | 190 nM
40 | CC(C)c1ccc(NC(=O)c2ccc(C(=O)NC3CCN(CC4CCCCC4)CC3)cc2)cc1 | 650 nM
41 | CCCCOc1ccc(C(O)C(CN2CCCCC2)c2ccccc2)cc1 (stereo not drawn) | 890 nM
42 | Cc1cc(NCCC(=O)Nc2ccccc2)nc(NCCOc2ccccc2)n1 | 1140 nM
43 | CCCN(CCCN(CCCN(CCC)C(C)C)c1cc(C)nc(Nc2ccc(Cl)cc2)n1)C(C)C | 110 nM
44 | CC(=O)Nc1cccc(CN(Cc2ccc(-c3ccc(CNCc4cccnc4)cn3)cc2)C(=O)Cc2cccnc2)c1 | 820 nM
45 | COc1ccc(-n2ccnc2SCC(=O)Nc2cc(C)ccc2C)c(OC)c1 | 200 nM
46 | CC(C)CNCc1ccc(-c2cccc(-c3nc4ccccc4[nH]3)c2)cc1 | 630 nM
47 | c1ccc(-c2ccc(CNCc3ccc(-c4cccc(-c5nc6ccccc6[nH]5)c4)cc3)s2)nc1 | 400 nM
48 | CCOC(=O)c1ccc(-n2c(C)cc(C=C3SC(=Nc4ccccc4)N(C4CCCC4)C3=O)c2C)cc1 | 1170 nM
49 | O=C(CN1CCCC1)Nc1cccc(C(=O)Nc2cccc(C(F)(F)F)c2)c1 | 510 nM
50 | CC[C@H]1CN2CC[C@@H]1C[C@H]2[C@H](O)c1cc(N2CCC(CO)CC2)nc2ccc(OC)cc12 | 160 nM

Row | SMILES | IC50
51 | CCOC(=O)C1=C(C)NC2=C(C(=O)CCC2)C1c1cn(Cc2ccc(Cl)cc2Cl)nc1-c1ccccc1 (stereo not drawn) | 620 nM
52 | Oc1ccc(CCNCCCCCCNCCc2ccc(Br)cc2)cc1O | 1020 nM
53 | NC(=O)COc1cccc2c1CCN(CCN1CCC(NC(=O)c3ccc(-c4ccc(Cl)cc4)cc3)CC1)C2 | 840 nM
54 | O=C(Cc1cccc(Cl)c1)Nc1ccc(N2CCC(NCc3ccc4ncccc4c3)CC2)cc1 | 1230 nM
55 | COCCNCc1ccc(-c2cccc(CN(C(=O)CCC3CCCC3)C3CCN(Cc4ccccc4)CC3)c2)cc1 | 940 nM
56 | Cc1nc(C)c(CC(=O)Nc2ccc(-c3cccc(-c4nc5ccc(C(F)(F)F)cc5[nH]4)c3)cc2)s1 | 920 nM
57 | O=C(c1cccs1)N(Cc1cccc(-c2ccc(CNCCc3ccccc3)cc2)c1)C1CCN(Cc2ccccc2)CC1 | 860 nM
58 | Cc1ccc(S(=O)(=O)N2CCN(C(=O)c3cc(-c4ccccc4)n[nH]3)CC2)cc1 | 600 nM
59 | CN(C)c1ccc(N=C2N=C(Nc3ccc(N(C)C)cc3)c3ccccc32)cc1 | 850 nM
60 | O=C(Nc1ccc(-c2cccc(-c3nc4ccc(C(F)(F)F)cc4[nH]3)c2)cc1)Nc1ccc(Cl)c(Cl)c1 | 750 nM
61 | Cc1ccc2cc(NCCCCCCCCON3C(N)=NC(N)=NC34CCCCC4)ccc2n1 | 160 nM
62 | COc1ccc(N2CCN(CCc3ccc(NC(=O)c4ccc([N+](=O)[O-])cc4)cc3)CC2)c(OC)c1 | 1170 nM
63 | CCOc1ccccc1C(=O)N1CCc2cc3nccc(N4CCN5CCC[C@H]5C4)c3cc21 | 750 nM
64 | CC(C)NCc1ccc(-c2cccc(NC(=O)c3cccc(Cl)c3)c2)cc1 | 730 nM
65 | O=C(CNC1CCCCC1)Nc1cccc(C(=O)Nc2cccc(C(F)(F)F)c2)c1 | 420 nM
66 | NCCc1cccc(-c2cnc3[nH]cc(-c4ccc(C(=O)O)cc4)c3c2)c1 | 400 nM
67 | O=C(Nc1cccc(CN2CCCN(Cc3ccc(O)cc3)CC2)c1)c1ccc(Br)cc1 | 800 nM
68 | O=C(C=Cc1ccc(Cl)c(Cl)c1)NCCCCCN1CCC(CCNC(=O)c2cccc3ccccc23)CC1 | 1590 nM
69 | COc1ccccc1C1CCN(C2CCC(NC(=O)/C=C/c3ccc(C(F)(F)F)cc3)CC2)CC1 (stereo not drawn) | 1160 nM
70 | Cc1nc(-c2cccc(Nc3nccc(NCC(O)c4cccc(F)c4)n3)c2)cs1 (stereo not drawn) | 700 nM
71 | CN(CCN)Cc1ccc(-c2ccc(-c3nc4ccc(C(F)(F)F)cc4[nH]3)s2)cc1 | 610 nM
72 | NC(=O)c1ccccc1Nc1nc(Nc2cccc(N3CCN(CCO)CC3)c2)ncc1Cl | 40 nM
73 | O=C(/C=C/c1ccc(Cl)c(Cl)c1)NCCCCCN1CCC(c2c[nH]c3ccc(O)cc23)CC1 | 890 nM
74 | CCOc1ccc(-c2nonc2NC(=O)CC(C)C)cc1OCC | 980 nM
75 | CCOC(=O)NC1=NC(C)(C)N(OCc2ccc(Cl)c(Cl)c2)C(N)=N1 | 40 nM

Row | SMILES | IC50
76 | COc1ccc2c(NN=Cc3ccc(N(C)C)cc3)ccnc2c1 | 660 nM
77 | O=C(NCCCCCN1CCC(c2ccc(O)cc2)CC1)c1ccc(-c2ccccc2)cc1 | 930 nM
78 | CN(C)C1CCN(CC#Cc2cc3ncnc(Nc4ccc(OCc5cccc(F)c5)c(Cl)c4)c3s2)CC1 | 890 nM
79 | COCCNCc1ccc(-c2ccc(CN(C(=O)NC3CCCCC3)C3CCN(Cc4ccccc4)CC3)cc2)cc1 | 960 nM
80 | CCOc1ccc2nc(C)cc(NN=Cc3ccccc3)c2c1 | 780 nM
81 | CCCc1nc2c(N3CC(NC(=O)/C=C/c4ccccc4)C3)cccc2n1C1CC1 | 550 nM
82 | c1cncc(CCNCc2cccc(-c3csc(-c4nc5ccccc5[nH]4)c3)c2)c1 | 700 nM
83 | Cc1cccc2[nH]c(-c3ccc(-c4ccc(NC(=O)NCc5cccc(F)c5)cc4)s3)nc12 | 890 nM
84 | COc1ccc(NS(=O)(=O)c2cc(NC(=O)Cn3ccccc3=O)ccc2N2CCCCC2)cc1 | 700 nM
85 | OCCNc1nc(Nc2ccc(F)cc2)nc2ccccc12 | 160 nM
86 | COc1cccc(NC(=O)NCCNc2ccnc(Nc3ccc(F)cc3)n2)c1 | 920 nM
87 | Cc1cc(C2CCN(CCCCNC(=O)c3ccc(-c4ccc(C#N)cc4)cc3)CC2)c(C)cc1O | 850 nM
88 | CN(C)CCCOc1cccc(CCNCc2cccc(Oc3ccc(Cl)cc3)c2)c1 | 1010 nM
89 | O=C(Nc1ccc(-c2ccc(-c3nc4ccc(C(F)(F)F)cc4[nH]3)cc2)cc1)Nc1ccc(F)c(F)c1F | 220 nM
90 | COc1cccc(C(=O)Nc2ccc(-c3nc4ccccc4[nH]3)cc2)c1 | 800 nM
91 | Cc1ccc(CNC(=O)[C@H](Cc2ccccc2)Nc2cc(C)nc(NCc3ccccc3C)n2)cc1 | 800 nM
92 | COc1ccc(-c2ccc(NC(=O)c3ccc(C#N)cc3)cc2)cc1CN1CCCN(C)CC1 | 150 nM
93 | COc1ccc(C2CC(=O)C3=C(C2)NC(C)=C(C(=O)OC(C)C)C3c2cccc(O)c2)cc1OC (stereo not drawn) | 780 nM
94 | Cc1cc(NN=Cc2ccc(F)cc2)c2ccc(F)cc2n1 | 950 nM
95 | Cc1cccc(CNc2nc(C)cc(N[C@@H](Cc3ccccc3)C(=O)NCc3cccc(F)c3)n2)c1 | 1040 nM
96 | CCc1ccc(CN2CCC(C(=O)Nc3ccc(-c4nc5ccccc5[nH]4)cc3)CC2)o1 | 610 nM
97 | CC(C)N(Cc1ccccc1)C(=O)CN1C(=O)COc2ccc(S(=O)(=O)N3CCCCCC3)cc21 | 250 nM
98 | COc1cccc(-c2csc(C(=O)NC3CCCCN(Cc4ccc(C(C)(C)C)cc4)C3)c2)c1 (stereo not drawn) | 890 nM

— PubChem BioAssay AID2305 (GlaxoSmithKline (GSK), 2010)
